Values joined by “and” are separate entries in the source; they are usually repeats but may differ in a detail not shown here. Identical values can stand only once.
Columns and labels:
SGC-7901 = assay: cells; type: functional, cell-based; details: Homo sapiens, SGC-7901, 72 h
Description: Cytotoxicity against human SGC-7901 cells assessed as inhibition of cell growth incubated for 72 hrs by MTT assay

AGS = assay: cells; type: functional, cell-based; details: Homo sapiens, 72 h
Description: Cytotoxicity against human AGS cells assessed as inhibition of cell growth incubated for 72 hrs by MTT assay

BGC-823 = assay: cells; type: functional, cell-based; details: Homo sapiens, BGC-823, 72 h
Description: Cytotoxicity against human BGC-823 cells assessed as inhibition of cell growth incubated for 72 hrs by MTT assay

HGC-27 [1] = assay: cells; type: functional, cell-based; details: Homo sapiens, HGC-27, 72 h
Description: Cytotoxicity against human HGC-27 cells assessed as inhibition of cell growth incubated for 72 hrs by MTT assay

in vitro [2] = details: human, GES1 cells
Description: Cytotoxicity against human GES1 cells assessed as inhibition of cell growth incubated for 72 hrs by MTT assay

MGC-803 = assay: cells; type: functional, cell-based; details: Homo sapiens, MGC-803, 72 h
Description: Cytotoxicity against human MGC-803 cells assessed as inhibition of cell growth incubated for 72 hrs by MTT assay

in vitro [3] = details: human, WI-38 cells
Description: Cytotoxicity against human WI-38 cells assessed as inhibition of cell growth incubated for 72 hrs by MTT assay

HGC-27 [4] = assay: Antiproliferative activity against human HGC-27 cells measured after 24 hrs by […]; type: functional, cell-based; details: HGC-27, 24 h
[5] = Toxicity in BALB/c mouse xenografted with human HGC-27 cells assessed as monocyte level at 150 mg/kg, po bid for 19 days; type: organism-based; details: in vivo, 456 h, time 19 day
[6] = Toxicity in BALB/c mouse xenografted with human HGC-27 cells assessed as RBC level at 150 mg/kg, po bid for 19 days; type: organism-based, Erythrocyte; details: in vivo, 456 h, time 19 day
[7] = Toxicity in BALB/c mouse xenografted with human HGC-27 cells assessed as mean platelet volume at 150 mg/kg, po bid for 19 days; type: organism-based; details: in vivo, 456 h, time 19 day
[8] = Toxicity in BALB/c mouse xenografted with human HGC-27 cells assessed as platelet level at 150 mg/kg, po bid for 19 days; type: organism-based; details: in vivo, 456 h, time 19 day
[9] = Toxicity in BALB/c mouse xenografted with human HGC-27 cells assessed as granulocyte level at 150 mg/kg, po bid for 19 days; type: organism-based; details: in vivo, 456 h, time 19 day
HGC-27 [10] = assay: Antitumor activity against human HGC-27 cells xenografted in BALB/c mouse assessed as tumor growth inhibition at 150 mg/kg, po bid administered for 19 days; type: functional; details: HGC-27, 456 h, time 19 day, read-out: TGI
[11] = Toxicity in BALB/c mouse xenografted with human HGC-27 cells assessed as mean corpuscular volume at 150 mg/kg, po bid for 19 days; type: organism-based; details: in vivo, 456 h, time 19 day
[12] = Toxicity in BALB/c mouse xenografted with human HGC-27 cells assessed as hematocrit level at 150 mg/kg, po bid for 19 days; type: organism-based; details: in vivo, 456 h, time 19 day
[13] = Toxicity in BALB/c mouse xenografted with human HGC-27 cells assessed as lymphocyte level at 150 mg/kg, po bid for 19 days; type: organism-based; details: in vivo, 456 h, time 19 day
[14] = Toxicity in BALB/c mouse xenografted with human HGC-27 cells assessed as platelet distribution width at 150 mg/kg, po bid for 19 days; type: organism-based; details: in vivo, 456 h, time 19 day
[15] = Toxicity in BALB/c mouse xenografted with human HGC-27 cells assessed as red blood cell distribution width at 150 mg/kg, po bid for 19 days; type: organism-based; details: in vivo, 456 h, time 19 day

| SMILES | IC50 (SGC-7901) | IC50 (AGS) | IC50 (BGC-823) | IC50 (HGC-27 [1]) | IC50 at 72 h (in vitro [2]) | IC50 (MGC-803) | IC50 at 72 h (in vitro [3]) | further results |
| --- | --- | --- | --- | --- | --- | --- | --- | --- |
| O=c1[nH]cc(F)c(=O)[nH]1 [FLUOROURACIL] | 69.8 µM | 23.2 µM | 14 µM | 27.5 µM | 38.5 µM | 62.5 µM | – | – |
| Cc1ccc(C(=O)Nc2ccc(CNC(=O)OCc3cccnc3)cc2)c(N2CCCC2)c1 | 75.2 µM | > 100 µM | > 100 µM | 1.87 µM | > 100 µM | > 100 µM | > 100 µM | – |
| O=C(NCc1ccc(NC(=O)c2ccc(F)cc2N2CCCC2)cc1)OCc1cccnc1 | 56.2 µM | > 100 µM | 74.5 µM | 1.84 µM | > 100 µM | 52.1 µM | > 100 µM | – |
| C#Cc1cccc(C(=O)Nc2ccc(CNC(=O)OCc3cccnc3)cc2)c1 | – | – | – | – | – | – | – | IC50 (HGC-27 [4]): > 100 µM |
| O=C(NCc1ccc(NC(=O)c2cc(C(F)(F)F)ccc2N2CCCC2)cc1)OCc1cccnc1 | > 100 µM | > 100 µM | > 100 µM | 0.79 µM | > 100 µM | 42.1 µM | > 100 µM | – |
| Nc1ccccc1NC(=O)c1ccc(CNC(=O)OCc2cccnc2)cc1 [ENTINOSTAT] | > 200 µM | 26.7 µM | 27 µM | 18.5 µM | 60.2 µM | 58.6 µM | – | – |
| Cc1ccc(N2CCCC2)c(C(=O)Nc2ccc(CNC(=O)OCc3cccnc3)cc2)c1 | 65.3 µM | 24.7 µM | > 100 µM | 1.65 µM | > 100 µM | 19.1 µM | 40.6 µM | – |
| O=C(NCc1ccc(NC(=O)c2cc(Cl)ccc2N2CCCC2)cc1)OCc1cccnc1 | > 100 µM | > 100 µM | > 100 µM | 0.75 µM | > 100 µM | 55.5 µM | > 100 µM | – |
| O=C(NCc1ccc(NC(=O)c2cc(-c3ccccc3)ccc2N2CCCC2)cc1)OCc1cccnc1 | > 100 µM | > 100 µM | > 100 µM | 4.34 µM | > 100 µM | 10.5 µM | > 100 µM | – |
| CCCCCOC(=O)Nc1nc(=O)n([C@@H]2O[C@H](C)[C@@H](O)[C@H]2O)cc1F [CAPECITABINE] | – | – | – | – | – | – | – | Activity [5]: 1.75 10^9/L and 2.18%; Activity [6]: 10.26 10^12/L; Activity [7]: 6.95 fL; Activity [8]: 799 10^9/L; Activity [9]: 73.83 10^9/L and 90.38%; inhibition in vivo at 150 mg/kg (HGC-27 [10]): 29.9%; Activity [11]: 53.73 fL; Activity [12]: 55.25%; Activity [13]: 6.1 10^9/L and 7.45%; Activity [14]: 17.93; Activity [15]: 15.63% |
| COc1ccc(N2CCCC2)c(C(=O)Nc2ccc(CNC(=O)OCc3cccnc3)cc2)c1 | 47.2 µM | 25.6 µM | > 100 µM | 138 µM | > 100 µM | 85.7 µM | 35.6 µM | – |
| O=C(NCc1ccc(NC(=O)c2cccc(F)c2N2CCCC2)cc1)OCc1cccnc1 | > 100 µM | > 100 µM | > 100 µM | 2.02 µM | > 100 µM | > 100 µM | > 100 µM | – |
| Cc1cccc(C(=O)Nc2ccc(CNC(=O)OCc3cccnc3)cc2)c1N1CCCC1 | > 100 µM | > 100 µM | > 100 µM | 1.03 µM | > 100 µM | > 100 µM | > 100 µM | – |
| O=C(NCc1ccc(NC(=O)c2cc(Br)ccc2N2CCCC2)cc1)OCc1cccnc1 | > 100 µM | > 100 µM | > 100 µM | 0.64 µM | > 100 µM | 45.7 µM | > 100 µM | – |
| C#Cc1ccc(N2CCCC2)c(C(=O)Nc2ccc(CNC(=O)OCc3cccnc3)cc2)c1 | – | – | – | – | – | – | – | IC50 (HGC-27 [4]): 2.48 µM |
